Data taken from publication PMC8213057, “Targeting ALK2: An Open Science Approach to Developing Therapeutics for the Treatment of Diffuse Intrinsic Pontine Glioma” (Journal of Medicinal Chemistry, 2020).
“And” between values parts separate entries of the source, which are not always exact repeats. Equal values may be shown once.

How the values were obtained:
RIPK3 = RIPK3 (Homo sapiens, UniProt Q9Y572); test: biochemical; settings: read-out: % enzyme activity, 1 μM; Run 1, Run 2
MRCKb/CDC42BPB = MRCKb/CDC42BPB (Homo sapiens, UniProt Q9Y5S2); settings: 1 μM; Run 1, Run 2
MRCKb/CDC42BPB, sequence (Q9Y5S2 whole entry): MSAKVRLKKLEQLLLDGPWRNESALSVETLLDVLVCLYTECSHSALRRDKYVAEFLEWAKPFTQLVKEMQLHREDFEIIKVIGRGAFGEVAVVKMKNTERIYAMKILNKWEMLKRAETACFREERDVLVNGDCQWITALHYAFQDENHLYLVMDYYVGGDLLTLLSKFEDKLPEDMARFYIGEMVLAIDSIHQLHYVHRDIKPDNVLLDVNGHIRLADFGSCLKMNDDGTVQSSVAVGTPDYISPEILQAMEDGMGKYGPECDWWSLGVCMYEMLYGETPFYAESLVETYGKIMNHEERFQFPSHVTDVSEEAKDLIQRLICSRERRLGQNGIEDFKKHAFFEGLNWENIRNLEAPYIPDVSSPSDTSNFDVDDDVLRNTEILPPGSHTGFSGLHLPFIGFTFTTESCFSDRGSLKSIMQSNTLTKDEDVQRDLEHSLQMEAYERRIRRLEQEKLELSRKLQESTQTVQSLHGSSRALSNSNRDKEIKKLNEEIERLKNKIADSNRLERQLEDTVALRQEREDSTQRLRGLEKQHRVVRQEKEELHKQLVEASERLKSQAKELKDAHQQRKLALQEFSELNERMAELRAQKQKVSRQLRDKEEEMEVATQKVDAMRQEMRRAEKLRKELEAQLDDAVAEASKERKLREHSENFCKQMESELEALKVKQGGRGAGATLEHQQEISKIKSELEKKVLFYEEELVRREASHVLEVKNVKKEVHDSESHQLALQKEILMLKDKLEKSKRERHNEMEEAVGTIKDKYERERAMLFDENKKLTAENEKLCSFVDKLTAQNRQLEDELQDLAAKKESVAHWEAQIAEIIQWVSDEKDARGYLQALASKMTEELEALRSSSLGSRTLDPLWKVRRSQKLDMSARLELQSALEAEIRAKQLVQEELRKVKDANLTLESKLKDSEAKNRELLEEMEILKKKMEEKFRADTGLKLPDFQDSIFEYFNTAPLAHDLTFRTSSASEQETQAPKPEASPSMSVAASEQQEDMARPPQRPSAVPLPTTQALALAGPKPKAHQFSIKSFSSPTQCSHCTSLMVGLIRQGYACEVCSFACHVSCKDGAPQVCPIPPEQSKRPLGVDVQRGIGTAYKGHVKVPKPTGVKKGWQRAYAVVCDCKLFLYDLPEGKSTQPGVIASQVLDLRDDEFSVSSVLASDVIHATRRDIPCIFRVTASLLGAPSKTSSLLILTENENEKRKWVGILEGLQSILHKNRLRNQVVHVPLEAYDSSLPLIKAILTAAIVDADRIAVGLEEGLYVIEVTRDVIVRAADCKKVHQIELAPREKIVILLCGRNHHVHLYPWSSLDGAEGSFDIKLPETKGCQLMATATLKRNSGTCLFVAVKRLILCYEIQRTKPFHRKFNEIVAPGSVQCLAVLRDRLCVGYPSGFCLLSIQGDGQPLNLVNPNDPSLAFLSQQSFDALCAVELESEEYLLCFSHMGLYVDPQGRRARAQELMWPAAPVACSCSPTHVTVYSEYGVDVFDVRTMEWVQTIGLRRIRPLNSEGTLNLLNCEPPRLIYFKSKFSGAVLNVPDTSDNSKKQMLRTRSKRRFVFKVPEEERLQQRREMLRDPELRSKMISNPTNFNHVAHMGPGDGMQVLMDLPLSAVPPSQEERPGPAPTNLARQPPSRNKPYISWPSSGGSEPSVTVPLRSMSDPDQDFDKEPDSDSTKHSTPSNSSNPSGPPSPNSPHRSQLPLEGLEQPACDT

EPHB4 = target: T1, EPHB4 (Homo sapiens, UniProt P54760); test: biochemical; settings: read-out: % enzyme activity, 1 μM; Run 1, Run 2
T1 sequence (P54760 16-987): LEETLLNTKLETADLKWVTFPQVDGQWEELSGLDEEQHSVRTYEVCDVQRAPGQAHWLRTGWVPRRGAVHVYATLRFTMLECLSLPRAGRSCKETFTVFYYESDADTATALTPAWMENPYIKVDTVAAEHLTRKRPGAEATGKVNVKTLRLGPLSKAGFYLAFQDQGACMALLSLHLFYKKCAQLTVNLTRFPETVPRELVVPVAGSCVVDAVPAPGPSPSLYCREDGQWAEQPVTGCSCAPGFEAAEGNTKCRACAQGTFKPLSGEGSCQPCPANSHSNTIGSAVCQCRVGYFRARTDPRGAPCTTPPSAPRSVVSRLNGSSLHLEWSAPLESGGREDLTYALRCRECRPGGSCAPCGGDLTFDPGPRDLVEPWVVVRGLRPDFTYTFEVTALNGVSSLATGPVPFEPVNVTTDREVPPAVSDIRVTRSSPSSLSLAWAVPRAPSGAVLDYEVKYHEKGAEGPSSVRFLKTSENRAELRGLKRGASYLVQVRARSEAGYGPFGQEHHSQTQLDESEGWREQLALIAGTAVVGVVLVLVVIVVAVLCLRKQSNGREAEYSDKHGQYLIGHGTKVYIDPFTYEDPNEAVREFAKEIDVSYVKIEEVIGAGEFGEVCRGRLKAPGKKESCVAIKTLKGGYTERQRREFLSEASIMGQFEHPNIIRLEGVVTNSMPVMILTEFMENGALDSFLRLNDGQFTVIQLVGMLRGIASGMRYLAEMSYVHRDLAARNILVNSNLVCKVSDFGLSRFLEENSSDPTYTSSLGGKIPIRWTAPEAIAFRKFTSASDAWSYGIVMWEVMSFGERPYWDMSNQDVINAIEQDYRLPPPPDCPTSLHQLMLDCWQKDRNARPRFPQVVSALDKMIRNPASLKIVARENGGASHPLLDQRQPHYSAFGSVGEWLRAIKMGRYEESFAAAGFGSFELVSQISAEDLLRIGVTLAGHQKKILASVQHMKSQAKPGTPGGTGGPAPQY

MLCK2/MYLK2 = MLCK2/MYLK2 (Homo sapiens, UniProt Q9H1R3); test: biochemical; settings: read-out: % enzyme activity, 1 μM; Run 1, Run 2
MLCK2/MYLK2, sequence (Q9H1R3 whole entry): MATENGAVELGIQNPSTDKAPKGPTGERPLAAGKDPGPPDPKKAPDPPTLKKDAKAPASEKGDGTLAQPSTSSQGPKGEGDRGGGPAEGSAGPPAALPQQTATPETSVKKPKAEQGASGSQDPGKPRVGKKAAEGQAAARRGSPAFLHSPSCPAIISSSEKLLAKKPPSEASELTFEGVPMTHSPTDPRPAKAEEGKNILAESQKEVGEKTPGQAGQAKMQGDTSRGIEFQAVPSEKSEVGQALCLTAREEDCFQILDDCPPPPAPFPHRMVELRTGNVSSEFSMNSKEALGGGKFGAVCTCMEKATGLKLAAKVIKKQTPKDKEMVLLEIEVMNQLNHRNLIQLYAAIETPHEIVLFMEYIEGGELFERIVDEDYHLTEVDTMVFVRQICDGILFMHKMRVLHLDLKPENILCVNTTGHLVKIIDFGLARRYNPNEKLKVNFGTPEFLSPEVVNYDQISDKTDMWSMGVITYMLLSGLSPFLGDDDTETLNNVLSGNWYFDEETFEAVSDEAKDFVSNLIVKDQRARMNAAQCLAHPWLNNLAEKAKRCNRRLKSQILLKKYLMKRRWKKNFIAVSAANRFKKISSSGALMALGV

CSK = CSK (Homo sapiens, UniProt P41240); settings: 1 μM; Run 1, Run 2
CSK, sequence (P41240 whole entry): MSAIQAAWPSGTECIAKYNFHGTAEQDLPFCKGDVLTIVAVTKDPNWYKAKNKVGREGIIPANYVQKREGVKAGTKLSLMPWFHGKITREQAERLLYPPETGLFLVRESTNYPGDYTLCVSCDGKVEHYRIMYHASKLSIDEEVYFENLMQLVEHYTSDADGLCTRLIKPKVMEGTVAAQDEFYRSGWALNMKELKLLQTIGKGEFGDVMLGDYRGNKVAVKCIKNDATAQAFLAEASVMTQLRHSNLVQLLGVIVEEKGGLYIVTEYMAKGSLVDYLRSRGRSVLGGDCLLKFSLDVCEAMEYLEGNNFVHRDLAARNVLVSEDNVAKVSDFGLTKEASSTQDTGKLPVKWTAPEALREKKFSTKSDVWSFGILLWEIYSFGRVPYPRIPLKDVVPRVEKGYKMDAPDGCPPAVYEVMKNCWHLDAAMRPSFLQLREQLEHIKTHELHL

TLK1 = target: T2, TLK1 (Homo sapiens, UniProt Q9UKI8); settings: 1 μM; Run 1, Run 2
T2 sequence (Q9UKI8 1-766): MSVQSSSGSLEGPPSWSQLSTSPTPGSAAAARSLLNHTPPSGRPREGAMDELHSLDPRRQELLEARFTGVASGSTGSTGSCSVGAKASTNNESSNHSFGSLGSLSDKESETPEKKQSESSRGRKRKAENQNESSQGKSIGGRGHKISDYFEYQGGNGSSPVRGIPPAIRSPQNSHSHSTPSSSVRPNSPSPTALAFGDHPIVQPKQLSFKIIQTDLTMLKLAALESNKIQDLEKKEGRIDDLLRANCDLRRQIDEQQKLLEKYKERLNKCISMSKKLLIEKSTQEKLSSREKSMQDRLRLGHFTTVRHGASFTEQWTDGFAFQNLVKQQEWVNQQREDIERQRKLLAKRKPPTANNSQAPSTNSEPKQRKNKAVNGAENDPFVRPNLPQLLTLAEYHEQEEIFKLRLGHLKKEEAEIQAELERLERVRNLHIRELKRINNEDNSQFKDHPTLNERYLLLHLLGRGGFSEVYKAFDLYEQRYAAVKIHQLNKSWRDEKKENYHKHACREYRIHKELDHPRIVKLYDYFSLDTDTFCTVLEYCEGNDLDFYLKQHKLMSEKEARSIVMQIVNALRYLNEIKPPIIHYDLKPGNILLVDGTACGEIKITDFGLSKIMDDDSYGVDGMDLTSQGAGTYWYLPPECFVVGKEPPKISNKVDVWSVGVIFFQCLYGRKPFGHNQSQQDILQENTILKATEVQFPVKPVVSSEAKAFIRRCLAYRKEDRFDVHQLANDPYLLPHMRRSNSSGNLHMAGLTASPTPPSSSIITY

ROCK2 = ROCK2 (Homo sapiens, UniProt O75116); settings: 1 μM; Run 1, Run 2
ROCK2, sequence (O75116 whole entry): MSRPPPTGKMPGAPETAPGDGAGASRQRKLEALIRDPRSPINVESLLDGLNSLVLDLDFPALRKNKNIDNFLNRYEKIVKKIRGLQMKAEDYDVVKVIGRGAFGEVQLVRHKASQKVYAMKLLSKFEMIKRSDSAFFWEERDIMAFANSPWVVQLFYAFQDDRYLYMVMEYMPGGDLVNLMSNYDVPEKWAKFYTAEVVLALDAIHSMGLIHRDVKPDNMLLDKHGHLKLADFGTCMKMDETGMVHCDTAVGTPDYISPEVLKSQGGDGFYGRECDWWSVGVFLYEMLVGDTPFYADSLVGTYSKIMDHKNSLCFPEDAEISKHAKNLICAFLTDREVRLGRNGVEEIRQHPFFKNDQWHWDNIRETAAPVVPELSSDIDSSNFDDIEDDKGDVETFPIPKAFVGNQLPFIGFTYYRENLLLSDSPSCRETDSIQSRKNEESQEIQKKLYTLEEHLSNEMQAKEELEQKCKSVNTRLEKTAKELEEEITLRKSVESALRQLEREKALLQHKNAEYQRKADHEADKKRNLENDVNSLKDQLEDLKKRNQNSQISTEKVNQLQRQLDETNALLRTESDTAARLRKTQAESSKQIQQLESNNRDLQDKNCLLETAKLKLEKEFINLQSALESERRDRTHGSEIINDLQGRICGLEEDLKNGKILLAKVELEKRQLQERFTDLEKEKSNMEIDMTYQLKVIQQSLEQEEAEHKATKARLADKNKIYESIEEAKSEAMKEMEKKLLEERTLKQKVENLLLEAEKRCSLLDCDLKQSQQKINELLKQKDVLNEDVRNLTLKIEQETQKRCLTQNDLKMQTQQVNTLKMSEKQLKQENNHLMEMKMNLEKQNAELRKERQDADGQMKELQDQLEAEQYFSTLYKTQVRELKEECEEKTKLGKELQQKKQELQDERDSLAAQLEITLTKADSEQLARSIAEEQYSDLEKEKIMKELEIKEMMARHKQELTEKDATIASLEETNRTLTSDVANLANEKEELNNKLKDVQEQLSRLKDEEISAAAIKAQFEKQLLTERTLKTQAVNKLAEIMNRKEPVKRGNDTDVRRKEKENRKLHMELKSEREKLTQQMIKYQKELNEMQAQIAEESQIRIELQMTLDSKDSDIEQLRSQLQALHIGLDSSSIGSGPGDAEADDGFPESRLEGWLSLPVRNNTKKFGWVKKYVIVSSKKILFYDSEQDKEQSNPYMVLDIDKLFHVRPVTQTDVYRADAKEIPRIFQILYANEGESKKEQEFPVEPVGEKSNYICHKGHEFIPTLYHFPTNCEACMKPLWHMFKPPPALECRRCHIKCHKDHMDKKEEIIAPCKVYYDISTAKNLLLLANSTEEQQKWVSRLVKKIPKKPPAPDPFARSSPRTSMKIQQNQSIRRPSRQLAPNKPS

P38d/MAPK13 = target: T3, P38d/MAPK13 (Homo sapiens, UniProt O15264); settings: 1 μM; Run 1, Run 2
T3 sequence (O15264 1-365): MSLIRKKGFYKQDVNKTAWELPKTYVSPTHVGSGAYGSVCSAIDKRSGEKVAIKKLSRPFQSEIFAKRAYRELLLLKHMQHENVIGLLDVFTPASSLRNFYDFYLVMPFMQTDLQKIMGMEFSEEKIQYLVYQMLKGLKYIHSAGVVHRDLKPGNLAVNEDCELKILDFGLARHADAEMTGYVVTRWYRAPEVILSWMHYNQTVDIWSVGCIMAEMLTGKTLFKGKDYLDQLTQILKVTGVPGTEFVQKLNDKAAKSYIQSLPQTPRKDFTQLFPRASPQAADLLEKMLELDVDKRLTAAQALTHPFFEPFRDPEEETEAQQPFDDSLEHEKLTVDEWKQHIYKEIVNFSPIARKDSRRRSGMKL

KDR/VEGFR2 = KDR/VEGFR2 (Homo sapiens, UniProt P35968); settings: 1 μM; Run 1, Run 2

RIPK3, sequence (Q9Y572 whole entry): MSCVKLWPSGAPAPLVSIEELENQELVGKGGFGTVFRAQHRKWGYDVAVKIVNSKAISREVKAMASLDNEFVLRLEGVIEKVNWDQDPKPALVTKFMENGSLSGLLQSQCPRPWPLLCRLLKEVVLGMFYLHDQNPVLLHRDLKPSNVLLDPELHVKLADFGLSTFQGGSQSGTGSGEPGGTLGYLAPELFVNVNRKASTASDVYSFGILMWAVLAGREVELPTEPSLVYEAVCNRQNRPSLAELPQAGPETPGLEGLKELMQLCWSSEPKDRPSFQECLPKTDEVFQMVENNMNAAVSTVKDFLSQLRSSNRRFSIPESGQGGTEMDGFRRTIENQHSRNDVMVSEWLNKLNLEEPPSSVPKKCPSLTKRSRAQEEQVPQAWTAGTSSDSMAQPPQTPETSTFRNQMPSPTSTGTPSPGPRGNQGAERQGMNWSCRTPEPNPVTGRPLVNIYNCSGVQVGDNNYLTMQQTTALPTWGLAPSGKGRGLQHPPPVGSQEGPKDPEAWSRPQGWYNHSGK

Structure (SMILES) | remaining activity at 1 µM (RIPK3) [%] | % enzyme activity (MRCKb/CDC42BPB) [%] | remaining activity at 1 µM (EPHB4) [%] | remaining activity at 1 µM (MLCK2/MYLK2) [%] | % enzyme activity (CSK) [%] | % enzyme activity (TLK1) [%] | % enzyme activity (ROCK2) [%] | % enzyme activity at 1 μM (TNIK) | % enzyme activity (P38d/MAPK13) [%] | % enzyme activity (KDR/VEGFR2) [%]
COc1cc(-c2cncc(-c3ccc(N4CCN(C)CC4)cc3)c2C)cc(F)c1C(N)=O [Compound 26a, 2-Fluoro-6-methoxy-4-(4-methyl-5-(4-(4-methylpiperazin-1-yl)phenyl)pyridin-3-yl)benzamide] | 106 | 94.42 | 94.7 | 66.8 | 99.36 | 107.91 | 115.13 | -0.77% and -2.62% | 98.26 | 92.99
COc1cc(-c2cncc(-c3ccc(N4C[C@@H](C)N(C)[C@@H](C)C4)cc3)c2C)cc(F)c1C(N)=O [Compound 26c, 2-Fluoro-6-methoxy-4-(4-methyl-5-(4-((3R,5S)-3,4,5-trimethylpiperazin-1-yl)phenyl)pyridin-3-yl)benzamide] | 104 | 99.47 | 91.5 | 84.8 | 102.04 | 100.84 | 93.98 | 4.85% and 3.92% | 97.52 | 85.59
